Assays:
[1] = tested on: Klebsiella pneumoniae; experiment: Clinical success at PTE by baseline pathogen, microITT; assay type: in vivo, human; details: N1 = 13 (Compound 1), 13 (Moxifloxacin)
[2] = Absolute bioavailability of the tablet formulation (tosylate salt); details: phase 3 tablet formulation (tosylate salt), fasting conditions; listed as omadacycline
[3] = tested on: Legionella pneumophila; assay type: in vivo, human; details: PTE, microITT; baseline pathogen Legionella pneumophila (culture, serology and/or urinary antigen); N1 = 37 (Compound 1), 37 (Moxifloxacin)
[4] = Phase 1 multiple oral dose study: safety and tolerability; details: for Most frequent TEAEs: ALT increased, n (%) / Most frequent TEAEs: Diarrhea, n (%) / Most frequent TEAEs: Dizziness, n (%) / Most frequent TEAEs: Nausea, n (%) / Most frequent TEAEs: Vomiting, n (%) / TEAEs leading to early discontinuation of study drug: ALT increased, n (%) / TEAEs leading to early discontinuation of study drug: All, n (%) / TEAEs leading to early discontinuation of study drug: Lipase increased, n (%) / TEAEs leading to early discontinuation of study drug: Nausea, n (%) / TEAEs leading to early discontinuation of study drug: Syncope, n (%) / TEAEs leading to early discontinuation of study drug: Vomiting, n (%) / n (%) of subjects with Any TEAE / n (%) of subjects with Treatment-related TEAE: Safety Population
[5] = Safety assessments in the multiple iv dose BAL study, healthy adult subjects; assay type: in vivo, human; details: 5 doses of 100 mg iv
Protocol: Safety assessments included physical examinations, electrocardiograms (ECG), vital signs, standard clinical laboratory evaluations (blood chemistry, hematology), pregnancy testing, and adverse event (AE) and serious adverse event (SAE) monitoring.
Any subject who received at least 1 dose of test article was included in the evaluation for safety. Safety was assessed by the following measures: Physical exams; AEs and SAEs; Vital signs; Laboratory assessments (Blood samples for hematology, chemistry, and coagulation (prothrombin time only)); ECG; and Pregnancy assessments.
Subjects were analyzed according to the treatment actually received.

[6] = subject who received 450 mg in Period 1 then 300 mg in Period 2

CN(C)c1cc(CNCC(C)(C)C)c(O)c2c1C[C@H]1C[C@H]3[C@H](N(C)C)C(O)=C(C(N)=O)C(=O)[C@@]3(O)C(O)=C1C2=O [Compound 1, 9-[(2,2-dimethyl-propylamino)-methyl]-minocycline]
Clinical Success n (%) [1]: 10 (76.9) n (%) | absolute bioavailability [2]: 35% | Clinical Success n (%) [3]: 35 (94.6) n (%) | frequency of treatment-related TEAEs ([4]; 300 mg): 15.4% | median change in alanine aminotransferase (ALT) between baseline and Day 5 ([4]; 300 mg): −2.0 IU/L | Most frequent TEAEs: ALT increased, n (%) ([4]; 300 mg (n = 26)): 0 n (%) | Most frequent TEAEs: Diarrhea, n (%) ([4]; 300 mg (n = 26)): 0 n (%) | Most frequent TEAEs: Dizziness, n (%) ([4]; 300 mg (n = 26)): 2 (7.7) n (%) | Most frequent TEAEs: Nausea, n (%) ([4]; 300 mg (n = 26)): 2 (7.7) n (%) | Most frequent TEAEs: Vomiting, n (%) ([4]; 300 mg (n = 26)): 2 (7.7) n (%) | TEAEs leading to early discontinuation of study drug: ALT increased, n (%) ([4]; 300 mg (n = 26)): 0 n (%) | TEAEs leading to early discontinuation of study drug: All, n (%) ([4]; 300 mg (n = 26)): 1 (3.8) n (%) | TEAEs leading to early discontinuation of study drug: Lipase increased, n (%) ([4]; 300 mg (n = 26)): 0 n (%) | TEAEs leading to early discontinuation of study drug: Nausea, n (%) ([4]; 300 mg (n = 26)): 1 (3.8) n (%) | TEAEs leading to early discontinuation of study drug: Syncope, n (%) ([4]; 300 mg (n = 26)): 0 n (%) | TEAEs leading to early discontinuation of study drug: Vomiting, n (%) ([4]; 300 mg (n = 26)): 1 (3.8) n (%) | n (%) of subjects with Any TEAE ([4]; 300 mg (n = 26)): 5 (19.2) n (%) | n (%) of subjects with Treatment-related TEAE ([4]; 300 mg (n = 26)): 4 (15.4) n (%) | frequency of treatment-related TEAEs ([4]; 450 mg): 8.3% | median change in alanine aminotransferase (ALT) between baseline and Day 5 ([4]; 450 mg): 5.0 IU/L | Most frequent TEAEs: ALT increased, n (%) ([4]; 450 mg (n = 24)): 1 (4.2) n (%) | Most frequent TEAEs: Diarrhea, n (%) ([4]; 450 mg (n = 24)): 0 n (%) | Most frequent TEAEs: Dizziness, n (%) ([4]; 450 mg (n = 24)): 0 n (%) | Most frequent TEAEs: Nausea, n (%) ([4]; 450 mg (n = 24)): 1 (4.2) n (%) | Most frequent TEAEs: Vomiting, n (%) ([4]; 450 mg (n = 24)): 0 n (%) | TEAEs leading to early discontinuation of study drug: ALT increased, n (%) ([4]; 450 mg (n = 24)): 1 (4.2) n (%) | TEAEs leading to early discontinuation of study drug: All, n (%) ([4]; 450 mg (n = 24)): 1 (4.2) n (%) | TEAEs leading to early discontinuation of study drug: Lipase increased, n (%) ([4]; 450 mg (n = 24)): 0 n (%) | TEAEs leading to early discontinuation of study drug: Nausea, n (%) ([4]; 450 mg (n = 24)): 0 n (%) | TEAEs leading to early discontinuation of study drug: Syncope, n (%) ([4]; 450 mg (n = 24)): 0 n (%) | TEAEs leading to early discontinuation of study drug: Vomiting, n (%) ([4]; 450 mg (n = 24)): 0 n (%) | n (%) of subjects with Any TEAE ([4]; 450 mg (n = 24)): 3 (12.5) n (%) | n (%) of subjects with Treatment-related TEAE ([4]; 450 mg (n = 24)): 2 (8.3) n (%) | frequency of treatment-related TEAEs ([4]; 600 mg): 25.0% | median change in alanine aminotransferase (ALT) between baseline and Day 5 ([4]; 600 mg): 19.5 IU/L | reports of diarrhea ([4]; 600 mg): 2 | Most frequent TEAEs: ALT increased, n (%) ([4]; 600 mg (n = 24)): 1 (4.2) n (%) | Most frequent TEAEs: Diarrhea, n (%) ([4]; 600 mg (n = 24)): 2 (8.3) n (%) | Most frequent TEAEs: Dizziness, n (%) ([4]; 600 mg (n = 24)): 1 (4.2) n (%) | Most frequent TEAEs: Nausea, n (%) ([4]; 600 mg (n = 24)): 4 (16.7) n (%) | Most frequent TEAEs: Vomiting, n (%) ([4]; 600 mg (n = 24)): 1 (4.2) n (%) | TEAEs leading to early discontinuation of study drug: ALT increased, n (%) ([4]; 600 mg (n = 24)): 0 n (%) | TEAEs leading to early discontinuation of study drug: All, n (%) ([4]; 600 mg (n = 24)): 1 (4.2) n (%) | TEAEs leading to early discontinuation of study drug: Lipase increased, n (%) ([4]; 600 mg (n = 24)): 1 (4.2) n (%) | TEAEs leading to early discontinuation of study drug: Nausea, n (%) ([4]; 600 mg (n = 24)): 0 n (%) | TEAEs leading to early discontinuation of study drug: Syncope, n (%) ([4]; 600 mg (n = 24)): 0 n (%) | TEAEs leading to early discontinuation of study drug: Vomiting, n (%) ([4]; 600 mg (n = 24)): 0 n (%) | n (%) of subjects with Any TEAE ([4]; 600 mg (n = 24)): 6 (25.0) n (%) | n (%) of subjects with Treatment-related TEAE ([4]; 600 mg (n = 24)): 6 (25.0) n (%) | TEAE nausea ([4]; 600 mg group): 16.7% | tolerability of multiple doses ([4]; 300, 450 and 600 mg once daily for 5 days): generally well-tolerated | TEAE nausea ([4]; 300 and 450 mg dose groups): ≤ 7.7% | Most frequent TEAEs: ALT increased, n (%) ([4]; Omadacycline Overall (n = 26)): 2 (7.7) n (%) | Most frequent TEAEs: Diarrhea, n (%) ([4]; Omadacycline Overall (n = 26)): 2 (7.7) n (%) | Most frequent TEAEs: Dizziness, n (%) ([4]; Omadacycline Overall (n = 26)): 3 (11.5) n (%) | Most frequent TEAEs: Nausea, n (%) ([4]; Omadacycline Overall (n = 26)): 6 (23.1) n (%) | Most frequent TEAEs: Vomiting, n (%) ([4]; Omadacycline Overall (n = 26)): 3 (11.5) n (%) | TEAEs leading to early discontinuation of study drug: ALT increased, n (%) ([4]; Omadacycline Overall (n = 26)): 1 (3.8) n (%) | TEAEs leading to early discontinuation of study drug: All, n (%) ([4]; Omadacycline Overall (n = 26)): 3 (11.5) n (%) | TEAEs leading to early discontinuation of study drug: Lipase increased, n (%) ([4]; Omadacycline Overall (n = 26)): 1 (3.8) n (%) | TEAEs leading to early discontinuation of study drug: Nausea, n (%) ([4]; Omadacycline Overall (n = 26)): 1 (3.8) n (%) | TEAEs leading to early discontinuation of study drug: Syncope, n (%) ([4]; Omadacycline Overall (n = 26)): 0 n (%) | TEAEs leading to early discontinuation of study drug: Vomiting, n (%) ([4]; Omadacycline Overall (n = 26)): 1 (3.8) n (%) | n (%) of subjects with Any TEAE ([4]; Omadacycline Overall (n = 26)): 10 (38.5) n (%) | n (%) of subjects with Treatment-related TEAE ([4]; Omadacycline Overall (n = 26)): 9 (34.6) n (%) | serious TEAEs (SAEs) ([4]; multiple oral doses 300-600 mg): no serious TEAEs | severity of TEAEs ([4]; multiple oral doses 300-600 mg): either mild or moderate | highest individual ALT value [4, 6]: 150 IU/L | highest individual ALT value above the upper limit of normal [4, 6]: 2.7 fold | subjects reporting TEAEs ([4]; subjects that received omadacycline (300, 450, 600 mg)): 38.5% | Treatment-emergent adverse events (TEAEs) reported [5]: 29% | changes in vital signs, laboratory or ECG parameters [5]: no clinically significant changes | discontinuations due to TEAEs [5]: no discontinuations due to TEAEs | most common TEAE: headache [5]: 12% | severe or serious TEAEs [5]: no severe or serious TEAEs

— US10835542B2, “9-aminomethyl minocycline compounds and use thereof in treating community-acquired bacterial pneumonia (CABP)” (Paratek Pharmaceuticals, Inc., priority 2016, dated 2020)
